Results on 13 compounds are retold here after BindingDB's records for doi:10.1021/jm00008a007 (1995).

Chain of Histamine H1 receptor (P31389 whole entry): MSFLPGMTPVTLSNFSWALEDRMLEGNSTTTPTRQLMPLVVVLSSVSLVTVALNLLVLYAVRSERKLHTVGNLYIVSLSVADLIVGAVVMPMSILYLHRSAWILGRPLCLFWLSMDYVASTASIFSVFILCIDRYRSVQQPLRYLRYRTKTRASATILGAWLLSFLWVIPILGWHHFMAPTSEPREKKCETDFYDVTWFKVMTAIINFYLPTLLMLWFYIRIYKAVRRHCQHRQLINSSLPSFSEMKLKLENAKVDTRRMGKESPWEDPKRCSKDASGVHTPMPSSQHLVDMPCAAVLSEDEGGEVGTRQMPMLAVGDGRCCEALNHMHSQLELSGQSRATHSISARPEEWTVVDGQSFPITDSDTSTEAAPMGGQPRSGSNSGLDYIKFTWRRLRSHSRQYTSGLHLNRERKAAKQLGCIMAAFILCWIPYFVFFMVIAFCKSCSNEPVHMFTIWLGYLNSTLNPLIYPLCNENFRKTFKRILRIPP

The test has as its target Histamine H1 receptor (Cavia porcellus, UniProt P31389). Description: H1-Histamine receptor agonism on Guinea pig aorta was evaluated (SEM 0.03-0.18).
The compound `NCCc1c[nH]c(Cc2ccccc2Cl)n1` registered an EC50 of 575 µM.
In turn, `NCCc1c[nH]c(-c2cccs2)n1` displayed a half-maximal effective concentration (EC50) of 9.99 µM. This EC50 is about 58-fold lower than that of the compound before.
Compound `NCCc1c[nH]c(-c2ccccc2)n1` showed a concentration for a half-maximal effect (EC50) of 6.3 µM.
The compound `NCCc1c[nH]c(-c2ccco2)n1` registered a concentration for a half-maximal effect (EC50) of 5.37 µM.
`NCCc1nccs1` [2-(2-aminoethyl)thiazole] returned an EC50 of 6.76 µM.
With `NCCc1c[nH]c(Cc2ccsc2)n1`, the EC50 came to 128 µM. Against the preceding compound, the EC50 is about 19-fold higher.
For `NCCc1c[nH]c(-c2csc(Br)c2)n1`, the response was half-maximal at 11.4 µM (EC50).
`NCCc1c[nH]c(Cc2cccc(Cl)c2)n1` gave an EC50 of 288 µM.
The compound `NCCc1c[nH]c(Cc2cccs2)n1` yielded an EC50 of 147 µM.
Under `NCCc1c[nH]c(-c2ccsc2)n1` stands 6.16 µM.
In turn, `NCCc1cnc(-c2cccc(C(F)(F)F)c2)[nH]1` gave a concentration for a half-maximal effect (EC50) of 1.28 µM.
In the case of `NCCc1c[nH]c(-c2cccc(I)c2)n1`, a half-maximal effect (EC50) was put at 2.57 µM.
Compound `NCCc1c[nH]c(-c2ccc[nH]2)n1` gave an EC50 of 10.2 µM.

For orientation: EC50 means the concentration giving half of the maximal effect.
